This is an account of results in patent US12169196B2, “Human iPSC-based drug testing platform for muscular dystrophy” (The Johns Hopkins University, priority 2019, dated 2024).

One series has as its system D2 myoblasts. Here is the method:
FIG. 7A: 9 primary hit compounds dose-response measured by MyHC antibody immunofluorescent intensity/nuclei. Concentrations of compounds were 0.001, 0.01, 0.1, 1, 2, 3, 4, 6 μM, except for saponin Q. which was 0.001, 0.01, 0.1, 0.2, 0.4, 0.6, 1 μM (n=3 for all). FIG. 7B: 9 primary hit compounds dose-response measured by α-actinin antibody immunofluorescent intensity/nuclei. Concentrations were same as in (FIG. 7A) (n=3 for all). FIGS. 7C-7E: Dose-response measured by cell average length of 3 analogs of saponin Q (n=3). […] (Data=Mean±SEM).
To further evaluate the efficacy of the 9 hit compounds and determine their optimal concentrations, an 8-point dose response assay was conducted, based on three parameters: anti-MyHC immunocytochemistry, anti-α-actinin immunocytochemistry and average cell length (FIGS. 7A-7B).

The subject of a further series is FLT3 signaling pathway. Particulars: 5 μM, 24 h. From the text:
Triplicate samples were used in microarray analysis. […] RNA was isolated using TRIzol (Invitrogen Life Technologies, Carlsbad, CA) followed by purification and DNase digestion using RNeasy mini kits (Qiagen, Venlo, Netherlands) according to manufacturer's instructions. […] Generation of sense strand cDNA from purified total RNA was followed by second strand synthesis, in vitro transcription cDNA synthesis, and single stranded cDNA synthesis and RNA hydrolysis. Fragmentation and labelling were performed according to manufacturer's instructions (GeneChip WT Plus reagent kit, Affymetrix, Santa). RNA extraction and qPCR were performed according to previous protocols, and primers are included in Table 1. The microarray data has been deposited in NCBI's Gene Expression Omnibus database and is accessible through the GEO series accession number GSE121023.

Another series has as its system p21 (WAF1/CIP1). As to the kind of experiment: Western blot of p21 protein expression in D2 myoblasts. Particulars: ginsenoside 25 μM or FLT3 recombinant protein 100 ng/ml, 30 min. It counts as cell-based, human. As to the method:
FIG. 3A: Top pathways selected by ingenuity pathway analysis of microarray result from ginsenoside Rd and fenofibrate-treated D2 myoblasts for 24 hours. Absolute z-score values above 2 were highlighted in red. FIGS. 3B and 3D: Quantification of western blot of p21 protein expression in D2 myoblasts treated with ginsenoside (25 μM), FLT3 recombinant protein (100 ng/ml) or DMSO for 30 min, n=4, *P≤0.05. FIG. 3C, 3E: Quantification of western blot of phosphorylated ERK 1/2 (p-ERK 1/2) in D2 myoblasts treated with ginsenoside (25 μM), FLT3 recombinant protein (100 ng/ml) or DMSO for 30 min, n=4, *P≤0.05. […] (Data=Mean±SEM, FIGS. 3D, 3E: one-way ANOVA with Dunnett's multiple comparison test with DMSO negative control, FIG. 3G: one-way ANOVA with Tukey's multiple comparison test).
Whole-cell extracts were prepared by lysing cells on plate with RIPA buffer (CST) supplemented by proteinase inhibitor and phosphatase inhibitor cocktail (CST). Western blotting was performed according to the standard protocol using precast NuPAGE (4-12%) Bis-Tris gel (Invitrogen). Protein transfer was performed with the Bio-Rad turbo or wet/tank blotting system. […] Membranes were then incubated with a secondary IRDye 800 conjugated anti-rabbit IgG, or Alexa Fluor 680 anti-mouse IgG and proteins were visualized and quantified using the LI-COR Odyssey Infrared Imaging System (LI-COR). […]
Background: A western blot detects proteins with antibodies after separation by electrophoresis.

The test system of series [1] is mdx^5cv mice. As to the kind of experiment: Masson's trichrome fibrosis in diaphragm muscle. It counts as in vivo, mouse. Conditions: ip, 10 mg/kg, 1344 h. From the text:
(§1) All animal experiments were approved by the Institutional Animal Care and Use Committee (IACUC) of The Johns Hopkins University, School of Medicine (Baltimore, Maryland). Mdx^5cv (B6Ros.Cg-Dmdmdx-5Cv/J) were obtained from The Jackson Laboratory. Mice were maintained in a 12-h light cycle (7 am-7 pm) with ad libitum access to food and water. […] Ginsenoside Rd was suspended in saline containing 10% 1,3-propanediol as vector.
(§2) Gastrocnemius, tibialis anterior, and diaphragm muscles were embedded in OCT, frozen in isopentane, and cross-sectioned (˜2-10 μm thickness). The sections were also stained with DAPI to visualize nuclei. In mice where Evans blue dye (EBD, 10 mg/ml) was used to evaluate membrane damage, EBD was injected at 0.05 ml/10 g intraperitoneally, 24 hours before sacrificing the mice. To evaluate EBD staining, gastrocnemius muscle sections were fixed with acetone and imaged with fluorescence microscopy. The area of EBD as a percentage of total area was calculated. To evaluate the number of central nucleated fibers, sections of the tibialis anterior muscle were stained with hematoxylin and eosin. Central nucleated fiber number was counted and analyzed against total fiber number. Diaphragm sections (10 μm) were stained with Masson's trichrome to determine collagen content. The stained areas were quantified against the total area.

The subject of series [2] is mdx^5cv mice. The series can be described thus: Evans blue staining and central nucleated fiber histology. It counts as in vivo, mouse. Conditions: 8 weeks treatment.
Text: as §1, §2

Series [3] deals with mdx^5cv mice. The series can be described thus: Forelimb grip strength. It counts as in vivo, mouse. Conditions: 8 weeks treatment. As to the method: as §1
(§3) Forelimb grip strength was measured as maximal tensile force using a computerized force transducer (Grip Strength Meter, Bioseb). Five measurements were performed for each animal and the maximum value was used for the analysis. Treadmill testing was performed using a motor-driven treadmill (Columbus Instruments). Prior to the test day, acclimatization was performed 5 times over a period of 2 weeks at 10 m/min. On the test day, mice ran at 5 m/min for 5 min (warm up) and the speed was increased 1 m/min every min up to 10 m/min. Mice were considered exhausted when they sat for more than 10 sec on a shock pad for the third time.

The test system of series [4] is mdx^5cv mice. As to the kind of experiment: Treadmill running. It counts as in vivo, mouse. Conditions: 1344 h. Here is the method: as §1, §3
Series [5] relates to mdx^5cv mice. The series can be described thus: Tibialis anterior muscle strength and rate of fatigue. It is filed as in vivo, mouse.
Text: as §1
Tibialis anterior muscle strength (maximal isometric force) and rate of fatigue were measured. Briefly, animals were anaesthetized with 3-5% isoflurane and placed in a supine position. The tibia was stabilized and the distal tendon of the tibialis anterior (TA) was surgically released and attached to the load cell (FT03, Grass Instruments, Warwick, RI). The load cell was adjusted via a micromanipulator to stretch the muscle to resting length (aka, optimal length). TA contraction was then triggered via subcutaneous stimulation of the fibular nerve, and the resulting force generated was sampled at 1 kHz and analyzed with acquisition software (PolyVIEW™ 16, Grass Instruments). After contractile function experiments, animals were euthanized and the TAs were harvested and weighed. […] To provide an index of fatigue, muscle tension was measured after 5 minutes of tetanic stimulation (200 ms train duration) repeated at 1 Hz and expressed as a percentage of initial tension.

Entries after “also recorded” stand apart in the source; their conditions may differ.

In the case of `CC(C)=CCC[C@](C)(O[C@@H]1O[C@H](CO)[C@@H](O)[C@H](O)[C@H]1O)[C@H]1CC[C@]2(C)[C@@H]1[C@H](O)C[C@@H]1[C@@]3(C)CC[C@H](O[C@@H]4O[C@H](CO)[C@@H](O)[C@H](O)[C@H]4O[C@@H]4O[C@H](CO)[C@@H](O)[C@H](O)[C@H]4O)C(C)(C)[C@@H]3CC[C@]12C` [ginsenoside Rd], in the series with D2 myoblasts, the “fusion of DMD hiPSC-derived myoblasts” value was “helped restore fusion” and the “toxicity / cell death” value is given as “lower toxicity”. Also, the “dose-dependent effect on D2 myoblasts (cell average length)” value with D2 myoblasts (saponin analog test) is “dose-dependent effect”. Moreover, the “ingenuity pathway analysis z-score, FLT3 signaling pathway” value in the series on FLT3 signaling pathway is on record as more than 2. For the same compound, the “levels of p21” value with p21 (WAF1/CIP1) is on record as “Increased levels of p21”. For the same compound, the “reduction of levels of fibrosis in diaphragm” value in the series on mdx^5cv mice [1] came out at 29%. For the same compound, in the series on mdx^5cv mice [2] (gastrocnemius), the “number of Evans blue dye positive fibers” value was “not significantly different”. Moreover, the central nucleated fibers result with mdx^5cv mice [2] (tibialis anterior) is reported as “not significantly different”. In the series with mdx^5cv mice [3], the “improvement of forelimb grip strength” value is 19%. Besides, the “improvement of endurance on treadmill running” value in the series with mdx^5cv mice [4] was “no effect”. In addition, in the series with mdx^5cv mice [5] (compared to mdx TA muscles), the “susceptibility of TA muscles to fatigue (repeated maximal isometric contractions)” value is given as “less susceptible to fatigue; also recorded: increased their resistance to fatigue”. Further, the “maximal isometric force generated by tibialis anterior (TA)” value with mdx^5cv mice [5] (compared with sham control) is “no significant difference”.
